Assay results as given in patent US6794386B2, “β-amino acid compounds as integrin antagonists” (Bayer Aktiengesellschaft, priority 2000, dated 2004).
Where two headings read alike, the source gives them in different places.

Biological target: T1, VLA-4 (Homo sapiens, UniProt P05556+P13612)
T1 construct: host or cells: Jurkat clone E6-1
Test: Adhesion of Jurkat cells to immobilized VCAM-1 (domains 1-3)
Assay type: cell-based
Parameters: scale not given here
Settings: adhesion of CFSE-labeled Jurkat cells to recombinant human VCAM-1 (domains 1-3) coated plates, compounds as yielded by solid phase synthesis, purity about 40-90%
How it was run: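 CFSE-labelled Jurkat E6-1 cells in Tris buffer pH 7.4 with 2 mM MnCl2 were added to wells coated with insect-cell-expressed human VCAM-1 domains 1-3 (0.5 μg/ml coating solution); labelled cells were incubated for 30 min at 37 °C with the VLA-4 inhibitor.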

T1 sequence (P13612 34-1032): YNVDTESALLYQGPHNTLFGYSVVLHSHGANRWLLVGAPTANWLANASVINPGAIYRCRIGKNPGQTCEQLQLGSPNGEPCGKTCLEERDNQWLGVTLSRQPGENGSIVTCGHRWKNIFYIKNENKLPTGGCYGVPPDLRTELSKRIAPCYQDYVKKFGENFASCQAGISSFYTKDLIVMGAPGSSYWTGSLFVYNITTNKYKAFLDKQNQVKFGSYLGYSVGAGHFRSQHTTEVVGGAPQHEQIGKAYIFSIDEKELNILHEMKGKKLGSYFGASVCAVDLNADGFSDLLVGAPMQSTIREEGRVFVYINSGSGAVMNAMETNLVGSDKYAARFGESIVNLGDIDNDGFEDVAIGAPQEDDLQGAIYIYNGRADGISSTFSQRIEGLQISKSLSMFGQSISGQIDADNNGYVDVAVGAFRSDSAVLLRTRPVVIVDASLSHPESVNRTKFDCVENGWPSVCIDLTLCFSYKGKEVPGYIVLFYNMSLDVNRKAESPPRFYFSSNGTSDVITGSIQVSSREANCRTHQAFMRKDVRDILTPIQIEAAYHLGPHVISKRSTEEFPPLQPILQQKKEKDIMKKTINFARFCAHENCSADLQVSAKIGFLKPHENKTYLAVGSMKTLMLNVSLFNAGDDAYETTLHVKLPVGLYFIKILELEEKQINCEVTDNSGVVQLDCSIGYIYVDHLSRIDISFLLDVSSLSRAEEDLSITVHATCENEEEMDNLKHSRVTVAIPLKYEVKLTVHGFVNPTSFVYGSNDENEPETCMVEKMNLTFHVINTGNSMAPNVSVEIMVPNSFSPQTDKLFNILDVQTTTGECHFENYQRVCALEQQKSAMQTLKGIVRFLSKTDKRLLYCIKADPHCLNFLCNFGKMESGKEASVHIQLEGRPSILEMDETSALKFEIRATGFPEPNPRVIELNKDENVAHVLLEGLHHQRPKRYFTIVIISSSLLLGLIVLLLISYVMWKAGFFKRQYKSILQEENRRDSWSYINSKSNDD
T1 sequence (P05556 21-798): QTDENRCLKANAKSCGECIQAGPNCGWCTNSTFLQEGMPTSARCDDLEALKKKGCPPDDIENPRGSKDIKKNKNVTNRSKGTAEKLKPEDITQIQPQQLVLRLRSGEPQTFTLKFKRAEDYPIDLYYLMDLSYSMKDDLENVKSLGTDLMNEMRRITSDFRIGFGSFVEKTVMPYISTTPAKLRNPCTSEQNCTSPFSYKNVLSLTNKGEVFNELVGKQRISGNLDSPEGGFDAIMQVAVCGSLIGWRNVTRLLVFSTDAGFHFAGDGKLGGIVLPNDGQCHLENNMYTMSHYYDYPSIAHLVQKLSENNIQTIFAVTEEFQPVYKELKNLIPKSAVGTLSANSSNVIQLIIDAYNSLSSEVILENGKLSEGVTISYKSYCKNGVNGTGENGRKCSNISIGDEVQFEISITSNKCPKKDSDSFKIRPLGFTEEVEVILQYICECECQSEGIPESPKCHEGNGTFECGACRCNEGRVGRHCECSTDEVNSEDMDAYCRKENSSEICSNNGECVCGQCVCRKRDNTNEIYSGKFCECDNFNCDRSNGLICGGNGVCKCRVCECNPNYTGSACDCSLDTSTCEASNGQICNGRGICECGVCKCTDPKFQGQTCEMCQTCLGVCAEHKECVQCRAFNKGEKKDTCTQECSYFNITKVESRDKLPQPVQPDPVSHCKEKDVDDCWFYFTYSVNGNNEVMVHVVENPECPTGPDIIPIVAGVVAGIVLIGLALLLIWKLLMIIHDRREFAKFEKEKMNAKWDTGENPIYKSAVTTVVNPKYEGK

| SMILES | IC50 | IC50 (read-out: IC50) [nM] |
| --- | --- | --- |
| Cc1ccc(-c2ccc(C[C@H](NC(=O)C3CCCN(S(=O)(=O)c4ccc(C)cc4)C3)C(=O)O)cc2)cc1 (some centres unmarked) [Example 1.66] | C-D | – |
| COCCNc1ncnc(N2CCCC(C(=O)N[C@@H](Cc3ccc(NC(=O)N4CCc5ccccc5C4)cc3)C(=O)O)C2)c1F (some centres unmarked) [Example 5.16] | – | 2000 to 10000 |
| O=C(N[C@@H](Cc1ccc(-c2ccccc2)cc1)C(=O)O)C1CCCN(C(=O)OC2CCCC2)C1 (some centres unmarked) [Example 1.16] | – | 2000 to 10000 |
| CN1CCN(C(=O)Nc2ccc(C[C@H](NC(=O)C3CCCN(c4ncnc(NC5CCCC5)c4F)C3)C(=O)O)cc2)CC1 (some centres unmarked) [Example 5.24] | – | 2000 to 10000 |
| O=C(N[C@@H](Cc1ccc(-c2ccccc2)cc1)C(=O)O)C1CCCN(C(=O)Cc2ccccc2)C1 (some centres unmarked) [Example 1.7] | C-D | – |
| O=C(N[C@@H](Cc1ccc(-c2cc(Cl)ccc2Cl)cc1)C(=O)O)C1CCCN(S(=O)(=O)c2ccc3ccccc3c2)C1 (some centres unmarked) [Example 1.106] | C-D | – |
| O=C(N[C@@H](Cc1ccc(NC(=O)N2CCc3ccccc3C2)cc1)C(=O)O)C1CCCN(C(=O)Nc2ccccc2)C1 (some centres unmarked) [Example 4.60] | – | 500 to 2000 |
| Cc1ccc(-c2ccc(C[C@H](NC(=O)C3CCCN(c4ncnc(NCCN5CCCC5)c4F)C3)C(=O)O)cc2)cc1 (some centres unmarked) [Example 2.12] | C-D | – |
| Cc1cc(C)c(OC(=O)N2CCCC(C(=O)N[C@@H](Cc3ccc(-c4ccccc4C)cc3)C(=O)O)C2)c(C)c1 (some centres unmarked) [Example 1.38] | C-D | – |
| O=C(N[C@@H](Cc1ccc(NC(=O)N2CCc3ccccc3C2)cc1)C(=O)O)C1CCCN(S(=O)(=O)c2ccc3ccccc3c2)C1 (some centres unmarked) [Example 4.39] | – | 2000 to 10000 |
| CN(Cc1ccccc1)c1ncnc(N2CCCC(C(=O)N[C@@H](Cc3ccc(NC(=O)N4CCOCC4)cc3)C(=O)O)C2)c1F (some centres unmarked) [Example 5.45] | – | 500 to 2000 |
| COc1ccc(-c2ccc(C[C@H](NC(=O)C3CCCN(C(=O)C4CCCCC4)C3)C(=O)O)cc2)cc1 (some centres unmarked) [Example 1.24] | C-D | – |
| O=C(N[C@@H](Cc1ccc(NC(=O)N2CCOCC2)cc1)C(=O)O)C1CCCN(S(=O)(=O)Cc2ccccc2)C1 (some centres unmarked) [Example 4.44] | – | 500 to 2000 |
| COc1ccccc1-c1ccc(C[C@H](NC(=O)C2CCCN(c3ncnc(NCc4ccccn4)c3F)C2)C(=O)O)cc1 (some centres unmarked) [Example 2.51] | – | 500 to 2000 |
| O=C(N[C@@H](Cc1ccc(NC(=O)N2CCN(c3ccccc3)CC2)cc1)C(=O)O)C1CCCN(c2ncnc(NCc3cccnc3)c2F)C1 (some centres unmarked) [Example 5.30] | – | 500 to 2000 |
| Cc1ccc(S(=O)(=O)N2CCCC(C(=O)N[C@@H](Cc3ccc(-c4ccccc4C)cc3)C(=O)O)C2)cc1 (some centres unmarked) [Example 1.85] | – | 500 to 2000 |
| O=C(N[C@@H](Cc1ccc(NC(=O)N2CCN(c3ccccc3)CC2)cc1)C(=O)O)C1CCCN(c2ncnc(NCc3ccncc3)c2F)C1 (some centres unmarked) [Example 5.37] | – | 500 to 2000 |
| O=C(N[C@@H](Cc1ccc(NC(=O)N2CCOCC2)cc1)C(=O)O)C1CCCN(S(=O)(=O)c2cc(Cl)cc(Cl)c2)C1 (some centres unmarked) [Example 4.29] | – | ≤ 500 |
| CS(=O)(=O)N1CCCC(C(=O)N[C@@H](Cc2ccc(NC(=O)N3CCN(C(c4ccccc4)c4ccccc4)CC3)cc2)C(=O)O)C1 (some centres unmarked) [Example 4.31] | – | 500 to 2000 |
| O=C(N[C@@H](Cc1ccc(-c2ccc(Cl)cc2Cl)cc1)C(=O)O)C1CCCN(C(=O)c2ccccc2Cl)C1 (stereo partly drawn) [Example 1.4, (2S)-2-({[1-(2-chlorobenzoyl)-3-piperidinyl]carbonyl}amino)-3-(2′,4′-dichloro[1,1′-biphenyl]-4-yl)propanoic acid] | – | 500 to 2000 |

| SMILES | IC50 | IC50 (read-out: IC50) [nM] |
| --- | --- | --- |
| COc1ccc(CC(=O)N2CCCC(C(=O)N[C@H](Cc3ccc(NC(=O)N4CCc5ccccc5C4)cc3)C(=O)O)C2)cc1 (some centres unmarked) [Example 4.23] | – | 500 to 2000 |
| O=C(N[C@@H](Cc1ccc(-c2ccc(Cl)cc2Cl)cc1)C(=O)O)C1CCCN(C(=O)OC2CCCC2)C1 (some centres unmarked) [Example 1.48] | – | 2000 to 10000 |
| COc1ccc(Cl)cc1S(=O)(=O)N1CCCC(C(=O)N[C@@H](Cc2ccc(NC(=O)N3CCN(c4ccccc4)CC3)cc2)C(=O)O)C1 (some centres unmarked) [Example 4.38] | – | 500 to 2000 |
| O=C(N[C@@H](Cc1ccc(-c2ccc(Cl)cc2Cl)cc1)C(=O)O)C1CCCN(S(=O)(=O)c2ccc3ccccc3c2)C1 (some centres unmarked) [Example 1.96] | C-D | – |
| CN1CCN(C(=O)Nc2ccc(C[C@H](NC(=O)C3CCCN(c4ncnc(N5CCc6ccccc6C5)c4F)C3)C(=O)O)cc2)CC1 (some centres unmarked) [Example 5.27] | – | 2000 to 10000 |
| CN1CCN(C(=O)Nc2ccc(C[C@H](NC(=O)C3CCCN(c4ncnc(N)c4F)C3)C(=O)O)cc2)CC1 (some centres unmarked) [Example 5.34] | – | ≤ 500 |
| CCCCN(C)c1ncnc(N2CCCC(C(=O)N[C@@H](Cc3ccc(-c4cc(Cl)ccc4Cl)cc3)C(=O)O)C2)c1F (some centres unmarked) [Example 2.40] | A-B | – |
| COC(=O)c1ccccc1S(=O)(=O)N1CCCC(C(=O)N[C@@H](Cc2ccc(-c3ccccc3)cc2)C(=O)O)C1 (some centres unmarked) [Example 1.57] | C-D | – |
| O=C(N[C@@H](Cc1ccc(NC(=O)N2CCc3ccccc3C2)cc1)C(=O)O)C1CCCN(S(=O)(=O)c2cccs2)C1 (some centres unmarked) [Example 4.33] | – | ≤ 500 |
| O=C(N[C@@H](Cc1ccc(NC(=O)N2CCN(c3ccccc3)CC2)cc1)C(=O)O)C1CCCN(c2ncnc(NC3CCN(Cc4ccccc4)CC3)c2F)C1 (some centres unmarked) [Example 5.23] | – | 500 to 2000 |
| CN1CCN(C(=O)Nc2ccc(C[C@H](NC(=O)C3CCCN(c4ncnc(N5CCCC5)c4F)C3)C(=O)O)cc2)CC1 (some centres unmarked) [Example 5.13] | – | 2000 to 10000 |
| O=C(N[C@@H](Cc1ccc(-c2cc(Cl)ccc2Cl)cc1)C(=O)O)C1CCCN(C(=O)c2ccccc2Cl)C1 (some centres unmarked) [Example 1.54] | – | 2000 to 10000 |
| O=C(N[C@@H](Cc1ccc(NC(=O)N2CCCCC2)cc1)C(=O)O)C1CCCN(S(=O)(=O)c2ccc3ccccc3c2)C1 (some centres unmarked) [Example 4.41] | – | ≤ 500 |
| O=C(N[C@@H](Cc1ccc(NC(=O)N2CCOCC2)cc1)C(=O)O)C1CCCN(c2ncnc(NC3CCN(Cc4ccccc4)CC3)c2F)C1 (some centres unmarked) [Example 5.22] | – | 2000 to 10000 |
| COc1ccccc1C(=O)N1CCCC(C(=O)N[C@@H](Cc2ccc(NC(=O)N3CCN(c4ccccc4)CC3)cc2)C(=O)O)C1 (some centres unmarked) [Example 4.14] | – | ≤ 500 |
| O=C(N[C@@H](Cc1ccc(-c2cc(Cl)ccc2Cl)cc1)C(=O)O)C1CCCN(c2ncnc(NC3Cc4ccccc4C3)c2F)C1 (some centres unmarked) [Example 2.38] | C-D | – |
| O=C(N[C@@H](Cc1ccc(-c2ccc(Cl)cc2Cl)cc1)C(=O)O)C1CCCN(C(=O)C2CCCCC2)C1 (some centres unmarked) [Example 1.44] | C-D | – |
| Cc1ccc(S(=O)(=O)N2CCCC(C(=O)N[C@@H](Cc3ccc(NC(=O)N4CCN(C)CC4)cc3)C(=O)O)C2)cc1 (some centres unmarked) [Example 4.11] | – | ≤ 500 |
| CN1CCN(C(=O)Nc2ccc(C[C@H](NC(=O)C3CCCN(c4ncnc(NCC(c5ccccc5)c5ccccc5)c4F)C3)C(=O)O)cc2)CC1 (some centres unmarked) [Example 5.18] | – | 500 to 2000 |
| O=C(N[C@@H](Cc1ccc(NC(=O)N2CCN(c3ccccc3)CC2)cc1)C(=O)O)C1CCCN(c2ncnc(NCC(c3ccccc3)c3ccccc3)c2F)C1 (some centres unmarked) [Example 5.19] | – | 500 to 2000 |

| SMILES | IC50 | IC50 (read-out: IC50) [nM] |
| --- | --- | --- |
| O=C(N[C@@H](Cc1ccc(-c2ccc(Cl)c(Cl)c2)cc1)C(=O)O)C1CCCN(c2ncnc(N3CCCCC3)c2F)C1 (some centres unmarked) [Example 2.43] | C-D | – |
| CN1CCN(C(=O)Nc2ccc(C[C@H](NC(=O)C3CCCN(C(=O)Cc4cccs4)C3)C(=O)O)cc2)CC1 (some centres unmarked) [Example 4.2] | – | ≤ 500 |
| CCCNc1ncnc(N2CCCC(C(=O)N[C@@H](Cc3ccc(-c4ccc(C)cc4)cc3)C(=O)O)C2)c1F (some centres unmarked) [Example 2.10] | C-D | – |
| Cc1ccc(S(=O)(=O)N2CCCC(C(=O)N[C@@H](Cc3ccc(NC(=O)NC4CCN(Cc5ccccc5)CC4)cc3)C(=O)O)C2)cc1 (some centres unmarked) [Example 4.32] | – | 2000 to 10000 |
| COc1ccc(Cl)cc1S(=O)(=O)N1CCCC(C(=O)N[C@@H](Cc2ccc(-c3ccc(Cl)cc3Cl)cc2)C(=O)O)C1 (some centres unmarked) [Example 1.100] | C-D | – |
| O=C(N[C@@H](Cc1ccc(NC(=O)N2CCN(c3ccccc3)CC2)cc1)C(=O)O)C1CCCN(c2ncnc(N3CCCC3)c2F)C1 (some centres unmarked) [Example 5.10] | – | 2000 to 10000 |
| CS(=O)(=O)N1CCCC(C(=O)N[C@@H](Cc2ccc(NC(=O)N3CCN(c4ccccc4)CC3)cc2)C(=O)O)C1 (some centres unmarked) [Example 4.37] | – | 500 to 2000 |
| O=C(N[C@@H](Cc1ccc(-c2cc(Cl)ccc2Cl)cc1)C(=O)O)C1CCCN(S(=O)(=O)c2ccccc2C(F)(F)F)C1 (some centres unmarked) [Example 1.109] | C-D | – |
| Cc1cc(Cl)c(CC(=O)N2CCCC(C(=O)N[C@@H](Cc3ccc(-c4ccccc4C)cc3)C(=O)O)C2)c(Cl)c1 (some centres unmarked) [Example 1.35] | C-D | – |
| COc1ccc(-c2ccc(C[C@H](NC(=O)C3CCCN(c4ncnc(N5CCCCC5)c4F)C3)C(=O)O)cc2)cc1 (some centres unmarked) [Example 2.16] | C-D | – |
| CN(Cc1ccccc1)c1ncnc(N2CCCC(C(=O)N[C@@H](Cc3ccc(-c4ccc(Cl)c(Cl)c4)cc3)C(=O)O)C2)c1F (some centres unmarked) [Example 2.45] | C-D | – |
| COc1ccc(-c2ccc(C[C@H](NC(=O)C3CCCN(c4ncnc(N5CCOCC5)c4F)C3)C(=O)O)cc2)cc1 (some centres unmarked) [Example 2.17] | C-D | – |
| COc1ccc(S(=O)(=O)N2CCCC(C(=O)N[C@@H](Cc3ccc(NC(=O)N4CCN(C)CC4)cc3)C(=O)O)C2)cc1OC (some centres unmarked) [Example 4.6] | – | ≤ 500 |
| Cc1ccccc1-c1ccc(C[C@H](NC(=O)C2CCCN(C(=O)c3ccccc3Cl)C2)C(=O)O)cc1 (some centres unmarked) [Example 1.36] | C-D | – |
| O=C(N[C@@H](Cc1ccc(NC(=O)N2CCOCC2)cc1)C(=O)O)C1CCCN(C(=O)OCc2ccccc2)C1 (some centres unmarked) [Example 4.17] | – | 500 to 2000 |
| Cc1ccc(S(=O)(=O)N2CCCC(C(=O)N[C@@H](Cc3ccc(-c4ccccc4)cc3)C(=O)O)C2)cc1 (some centres unmarked) [Example 1.56] | – | 500 to 2000 |
| O=C(N[C@@H](Cc1ccc(NC(=O)N2CCOCC2)cc1)C(=O)O)C1CCCN(S(=O)(=O)c2ccc3ccccc3c2)C1 (some centres unmarked) [Example 4.30] | – | ≤ 500 |
| O=C(N[C@@H](Cc1ccc(-c2ccc(Cl)c(Cl)c2)cc1)C(=O)O)C1CCCN(c2ncnc(NCc3ccccn3)c2F)C1 (some centres unmarked) [Example 2.41] | C-D | – |
| O=C(N[C@@H](Cc1ccc(-c2ccc(Cl)cc2Cl)cc1)C(=O)O)C1CCCN(S(=O)(=O)c2ccccc2C(F)(F)F)C1 (some centres unmarked) [Example 1.99] | C-D | – |
